Results as given in the NIST ThermoML archive (doi:10.1021/acs.jced.5b00545).

Settings: Liquid; for mass density / kinematic viscosity: 101.33 kPa; for mass density: Pycnometric method; for kinematic viscosity: Capillary tube (Ostwald / Ubbelohde) method; for vapor or sublimation pressure: Closed cell (Static) method

CCCCCC[C@@H](O)CC=CCCCCCCCC(=O)OC [[R]-methyl 12-hydroxy-9-octadecenoate]
Settings | kinematic viscosity [m2/s] | mass density [kg/m3] | vapor or sublimation pressure [kPa]
293.16 K | – | 928.5 | –
298.23 K | 2.95e-05 | – | –
303.13 K | 2.35e-05 | – | –
303.17 K | – | 921.2 | –
308.25 K | 1.81e-05 | – | –
313.15 K | 1.49e-05 | – | –
313.33 K | – | 916.7 | –
318.38 K | 1.2e-05 | – | –
323.05 K | – | 910.3 | –
323.08 K | 1.01e-05 | – | –
328.12 K | 8.52e-06 | – | –
333.15 K | 7.25e-06 | – | –
333.25 K | – | 904 | –
338.05 K | 6.26e-06 | – | –
343.1 K | 5.43e-06 | – | –
343.32 K | – | 895.8 | –
348.06 K | 4.76e-06 | – | –
353.06 K | – | 883.3 | –
353.11 K | 4.2e-06 | – | –
358.15 K | 3.73e-06 | – | –
363.38 K | – | 875 | –
373.26 K | – | 865.8 | –
383.23 K | – | 857.5 | –
451.58 K | – | – | 0.232
454.7 K | – | – | 0.276
457.23 K | – | – | 0.319
459.5 K | – | – | 0.361
461.85 K | – | – | 0.41
463.55 K | – | – | 0.449
465.2 K | – | – | 0.49
466.83 K | – | – | 0.533
469.55 K | – | – | 0.61
470.4 K | – | – | 0.637
471.25 K | – | – | 0.665
472.3 K | – | – | 0.7
473.15 K | – | – | 0.73
474.9 K | – | – | 0.794
476.8 K | – | – | 0.868

CCCCCCCCCCCCCCCC(=O)OC [methyl hexadecanoate]
Settings | vapor or sublimation pressure [kPa]
407.12 K | 0.13
414.26 K | 0.21
418.18 K | 0.24
422.34 K | 0.27
424.68 K | 0.305
427.54 K | 0.365
429.32 K | 0.415
432.32 K | 0.42
434.18 K | 0.515
437.3 K | 0.545
438.44 K | 0.56
439.6 K | 0.65
441 K | 0.66
445.36 K | 0.84
447.06 K | 0.85
